Literature values in patent EP2392318A1 (Laboratorios Liconsa, S.A., priority 2010, dated 2011).

## CCCCc1nc(Cl)c(CO)n1Cc1ccc(-c2ccccc2-c2nn[nH]n2)cc1 [losartan, 2-butyl-4-chloro-1-[[2'-(1H-tetrazol-5-yl)[1,1'-biphenyl]-4-yl]methyl]-1H-imidazole-5-methanol]
After being orally administered
  terminal half-life: about 2 hours
In the gastrointestinal tract
  orally absorbed: about 33%
